Assay results taken from patent publication US8507464B2, “Phosphoramidate alkylator prodrugs” (Threshold Pharmaceuticals, Inc., priority 2005, dated 2013).
≈ marks a conversion by molar mass, not a printed value. Like-named read-outs stand apart in the source and are kept apart here.

Columns and labels:
[1] = test system: NCI-H460 cells; assay: Antiproliferation assay - oxygen dependence; assay type: cell-based, human; conditions: Homo sapiens
Description: . […] The calculated IC50 values (μM) are tabulated in Table Y1 (H460 cells) or Table Y2 (HT29 cells) below.

[2] = test system: mouse (MLM) liver microsomal proteins; assay type: in vitro ADME; conditions: Table 2B
[3] = in vivo; conditions: CD-1, mouse, 50 mg/kg
[4] = Plasma stability (Table 2B); conditions: 30 min
[5] = test system: NCI-H460 cells; assay: Clonogenic assay - oxygen dependence; conditions: Homo sapiens
[6] = test system: HT29; assay: Clonogenic assay, hypoxia vs normoxia (Table 1B); conditions: Homo sapiens, HT-29, read-out: HT29 C H (clonogenic IC90, hypoxia)
[7] = test system: HT29 cells; assay: Antiproliferation assay (Alamar Blue), anoxia vs air; conditions: Homo sapiens, HT-29, 2 h, read-out: IC50 HT29 Anoxia
[8] = test system: H460 cell line; assay: Anti-proliferation assay, hypoxia vs normoxia (Table 1A); conditions: for IC50: Homo sapiens
[9] = test system: HT29; assay: Anti-proliferation assay, hypoxia vs normoxia (Table 1B); conditions: Homo sapiens, HT-29, read-out: HT29 P H (proliferation IC50, hypoxia)
[10] = test system: human H460 cells; assay: Clonogenic survival assay, hypoxia vs normoxia (Table 1A); conditions: for IC90: Homo sapiens
[11] = Pharmacokinetics after intravenous or intraperitoneal administration in mice (Table 2B); conditions: plasma, 50 mg/kg
[12] = Solubility in saline at room temperature; assay type: physicochemical; conditions: saline or isotonic
[13] = 25 mg/kg i.p., 10% PEG, CD-1 mice
[14] = test system: NCI-H460 cells; assay: Antiproliferation assay (Alamar Blue), anoxia vs air; conditions: read-out: IC50 H460 Anoxia; anoxia, 2 h exposure
[15] = test system: spheroids; assay: Spheroid combination with cisplatin or daunorubicin, clonogenic survival; assay type: cell-based, human; conditions: Homo sapiens, 2 h exposure, read-out: IC50 (μM), spheroids, daunorubicin combination experiment
Method: The phosphoramidate alkylator prodrug was combined simultaneously with cisplatin or daunorubicin and the spreroids exposed for 2 h to the combination, followed by measurement of clonogenic survival.

[16] = test system: H460 lung carcinoma spheroids; assay: Spheroid model, clonogenic survival; conditions: Homo sapiens, NCI-H460, 2 h, read-out: IC90 H460 Spheroid 10% O2
[17] = test system: H460 cells exposed as monolayers; assay: Clonogenic survival of monolayer cells (Example 35); conditions: Homo sapiens, NCI-H460, 2 h, read-out: IC90 H460 Monolayer (oxygen column not identifiable)
[18] = CD-1, Balb/c for Compound 1, mouse, iv

O=[N+]([O-])c1ccc(COP(=O)(NCCCl)NCCCl)o1 [Compound 23]
IC50 ([1]; NCI-H460, read-out: IC50 in H460 cells, 0.1% O2): 5 µM | IC50 ([1]; NCI-H460, read-out: IC50 in H460 cells, 0.6% O2): 6 µM | IC50 ([1]; NCI-H460, read-out: IC50 in H460 cells, 1% O2): 5 µM | IC50 ([1]; NCI-H460, read-out: IC50 in H460 cells, Air): 5 µM | IC50 ([1]; NCI-H460, read-out: IC50 in H460 cells, N2): 0.05 µM | Metabolic stability (MLM) (% at 30 min) [2]: 71% | Cmax ([3]; ip): 8500 ng/mL | Tmax ([3]; ip): 5 min | half-life ([3]; ip): 9.6 min | Cmax ([3]; iv): 7800 ng/mL | Tmax ([3]; iv): 5 min | half-life ([3]; iv): 8.87 min | Plasma stability (% at 30 min) [4]: 84% | IC90 ([5]; NCI-H460, read-out: IC90 H460 0.6% O2): 0.6 µM | IC90 ([5]; NCI-H460, read-out: IC90 H460 Air): 5 µM | IC90 ([5]; NCI-H460, read-out: IC90 H460 N2): 0.3 µM | IC90 [6]: 2 µM | IC50 [7]: 7.5 µM | IC50 ([8]; NCI-H460, read-out: Hypoxia P (proliferation IC50)): 0.04 µM | IC50 ([8]; NCI-H460, read-out: Normoxia P (proliferation IC50)): 5 µM | HCR P ([8]; ratio of IC50 in normoxia and hypoxia): 125 | IC50 [9]: 7.5 µM | IC90 ([10]; NCI-H460, read-out: Hypoxia C (clonogenic IC90)): 0.2 µM | IC90 ([10]; NCI-H460, read-out: Normoxia C (clonogenic IC90)): 10 µM | HCR C ([10]; ratio of IC90 in normoxia and hypoxia): 50 | clearance ([11]; CD-1 (Compounds 5, 23, 36), Balb/c (Compound 1), mouse, iv): 368 mL/min/kg | AUC ([11]; CD-1, mouse, ip): 3500 ng·h/mL | Cmax ([11]; CD-1, Balb/c for Compound 1, mouse, ip): 8500 ng/mL | AUC [11, 18]: 2300 ng·h/mL | Cmax [11, 18]: 7800 ng/mL | Vd [11, 18]: 3.3 L/kg | half-life [11, 18]: 9 min | half-life ([11]; mouse, ip): 9.6 min

Cn1c([N+](=O)[O-])cnc1COP(=O)(NCCBr)NCCBr [Compound 73]
solubility [12]: 10000 µg/mL (≈ 22.3 mM)

CC(OP(=O)(NCCBr)NCCBr)c1ncc([N+](=O)[O-])n1C (stereo not drawn) [Compound 85]
Cmax [13]: 3930 ng/mL | Tmax [13]: 5.00 min | half-life [13]: 10.0 min | IC50 [14]: 0.7 µM

Cn1c([N+](=O)[O-])cnc1COP(=O)(N(CCCl)CCCl)N(CCCl)CCCl [Compound 155]
solubility [12]: < 1000 µg/mL

COc1cccc2c1C(=O)c1c(O)c3c(c(O)c1C2=O)C[C@@](O)(C(C)=O)C[C@@H]3O[C@H]1C[C@H](N)[C@H](O)[C@H](C)O1 [Daunorubicin, reference compound]
IC50 [15]: 17 µM | IC90 [16]: 19 µM | IC90 [17]: 0.16 µM
